{
  "source": "paper PMC7707092",
  "about": "“Discovery and characterization of ORM‐11372, a novel inhibitor of the sodium‐calcium exchanger with positive inotropic activity” (British Journal of Pharmacology, 2020)",
  "key": {"[1]": {"test_system": "healthy rats", "experiment": "In vivo haemodynamics in healthy rats (supplement)", "parameters": "species or system rat", "source_text": "In vivo haemodynamics in healthy rats\nExperimental Animals and General Study Protocol\nRat was selected to the study as it is the most widely used rodent species in the toxicology studies performed for the small molecules during the drug development. […]\nAll animal experiments were made according to European Community Guidelines for the use of experimental animals and approved by Finnish National Animal Experiment Board. All studies complied with the ARRIVE guidelines, (NC3Rs Reporting Guidelines Working Group, 2010).\nSpecific pathogen free animals were housed in half -barrier rooms where special protecting clothing for personnel was required. Animal rooms were cleaned regularly 3 times per week and cages and bottles were […]\nchanged regular intervals once a week. Temperature was maintained at 22 ± 2°C and humidity at 55 ± 15%.\nLight-dark cycle was lights on from 06.00 to 20.00h.\nMale Sprague-Dawley rats (Harlan, Netherlands B.V.) were housed in polycarbonate cages (Makrolon® IV with stainless steel wire mesh lids). Maximally 5 rats were housed per cage with aspen chip bedding (Tapvei Ky, Kaavi, Finland). Rats had free access to water (twice filtered, Espoon Vesi) and rodent diet (SDS RM1\n(P) SQC pelleted diet, Special Diet Services Ltd, Witham, England). Acclimation period before experiments was at least 5 days. Healthy 10-12 weeks aged weighing 300-400 g rats were randomized to ORM-11372, dobutamine or vehicle group.\nAt the end of the haemodynamic experiments, rats were terminated with an overdose of pentobarbital.\nAnesthesia and ventilation\nRats were anaesthetised with isoflurane (2.25-2.5 %, Baxter) in carbogen (95 % O2 and 5 % CO2) and nitrous oxide (1:1) using a small rodent ventilator (Ugo Basile 7025, ~10 ml/kg, 60 strokes/min). The rats were infused with 0.9 % NaCl in […] at the stabilization and baseline level. Animals were placed on a heating table (+38°C). Tracheas were cannulated.\nSystemic blood (SP) and left ventricular pressures (LVP) were measured with pressure transducers (BP:\nIsotec, Hugo Sachs Elektronic, Germany; LVP: Mikro-Tip transducer SPR-249, Millar Instruments, USA). The signal was amplified (DC-bridge amplifier type 660, Hugo Sachs Elektronik, Germany), digitised (I/O connector block type SCB-68, National Instruments, USA), recorded and analysed (IHME 1.0.9, Fision Ltd, Finland). Left ventricular inotropic effect (LV +dP/dtmax) and relaxation (LV -dP/dtmin) and heart rate (HR) were analysed from LVP signal.\nBlood sampling for the evaluation of plasma levels of the drug\nAt the end of each infusion, the blood samples (300-500 µl) were taken into chilled EDTA polypropylene tube (CapiJect®, Terumo) and centrifuged (4000 rpm, 10 min, at 4°C). Plasma was immediately frozen in polypropylene tubes and stored at –20°C. ORM-11372 and dobutamine were extracted from plasma samples using a liquid–liquid extraction and analysed using liquid chromatography–tandem mass spectrometry (Agilent Technologies series 1100 liquid chromatographic system and a Sciex LC-MS/MS API 4000 mass spectrometry). The lower limit of quantification for total plasma concentrations were 32.0 and 5.00 ng/ml from total for ORM-11372 and dobutamine, respectively. […]\nThe effects of dobutamine on blood pressure varies partially due to the use of racemate as active ingredient in the pharmaceutical formulation. (-)-dobutamine is α1-agonist and therefore causes increases in cardiac output and peripheral resistance. (+)-dobutamine acts via β1- and β2-adrenoceptors which leads to increase in heart rate and reduction in blood pressure 16.\nFigure S20 Haemodynamics in healthy rats\nEffects of ORM-11372 and dobutamine on haemodynamics in isoflurane anesthetized 10-12 weeks aged male Sprague-Dawley rats (Harlan, Netherlands B.V.) weighing 300-400 g. Shown are mean ± SEM and individual effects on the left ventricular contractility (LV+dP/dtmax, panel A), relaxation (LV-dP/dtmax, panel B), heart rate (panel C), and systolic arterial blood pressure (SAP, paned D). […]"}, "[2]": {"target": "T1, h5‐HT2A receptors (Homo sapiens, UniProt P28223)", "T1 construct": "host or cells: recombinant HEK 293", "T1 sequence (P28223 whole entry)": "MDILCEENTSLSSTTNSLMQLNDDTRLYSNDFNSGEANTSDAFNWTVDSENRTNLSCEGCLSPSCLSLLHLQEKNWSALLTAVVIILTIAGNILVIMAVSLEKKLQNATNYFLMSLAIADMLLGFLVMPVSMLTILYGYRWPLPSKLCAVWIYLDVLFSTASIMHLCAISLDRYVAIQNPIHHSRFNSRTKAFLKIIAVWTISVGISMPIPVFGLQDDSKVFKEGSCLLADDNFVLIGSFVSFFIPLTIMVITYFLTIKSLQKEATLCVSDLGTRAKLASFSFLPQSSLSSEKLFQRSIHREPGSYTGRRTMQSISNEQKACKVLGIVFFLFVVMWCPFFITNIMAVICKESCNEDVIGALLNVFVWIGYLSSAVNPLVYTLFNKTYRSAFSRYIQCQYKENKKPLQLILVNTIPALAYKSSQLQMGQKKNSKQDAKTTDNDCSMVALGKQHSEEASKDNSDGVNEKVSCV", "experiment": "h5‐HT2A agonism and antagonism, intracellular calcium in recombinant HEK 293 cells", "type": "cell-based", "settings": "maximum concentration 10 μM", "procedure": "Radioligand binding assays were performed at Eurofins Cerep SA (Celle L'Evescault, France), for testing the inhibition capacity of ORM‐11372 (at 10 μM with two replicates), in over 75 targets. These included receptors (e.g., human A1, A2A, and A3 adenosine receptors; α1 and α2 adrenoceptors; human β1–β3 adrenergic receptors; human D1, D2S, D3, D4.4, and D5 dopamine receptors; EGF and VEGF receptors; human M1–M5 muscarinic ACh receptors; human 5‐HT1A, 5‐HT2A, 5‐HT2B, 5‐HT2C, 5‐HT4e, 5‐HT5A, 5‐HT6, and 5‐HT7 receptors), ion channels (5‐HT3, Ca^2+, ATP‐dependent potassium channel [KATP], voltage‐dependent potassium channel [KV], small‐conductance calcium‐dependent potassium channel [SKCa], Na^+, and Cl^−), and transporters (adenosine, noradrenaline, dopamine, and 5‐HT). Follow‐up functional studies (with five concentrations and two replicates) were performed for 5‐HT2A receptors and noradrenaline transporter. Agonism and antagonism at h5‐HT2A receptors was explored in recombinant HEK 293 cells and intracellular calcium changes were detected using fluorimetry. Noradrenaline uptake was measured by carrying out scintillation counting of [^3H]noradrenaline incorporated into rat hypothalamus synaptosomes."}, "[3]": {"settings": "4 nM up to 92 nM free plasma concentration"}},
  "data": [
    {"smiles": "Nc1cccc(-c2ccc(CNc3ccc(F)cc3)o2)c1", "note": "[ORM‐11372]", "values": [
      {"measurement": "absolute maximum positive inotropic effect", "setting": "[1]", "result": 44, "unit": "%"},
      {"measurement": "free plasma concentration achieving 25% positive inotropic effect", "setting": "[1]", "result": "36 ± 1.4", "unit": "nM"},
      {"measurement": "free plasma concentration at absolute maximum positive inotropic effect", "setting": "[1]", "result": "351 ± 92", "unit": "nM"},
      {"measurement": "free plasma concentration at maximum inotropic effect without any other effects", "setting": "[1]", "result": "92 ± 8", "unit": "nM"},
      {"measurement": "free plasma concentration at the 10±2% (ORM-11372) / 16±3% (dobutamine) inotropic effect", "setting": "[1]", "result": "4 ± 0.3", "unit": "nM"},
      {"measurement": "left ventricular relaxation", "setting": "[1]; [3]", "result": "did not affect"},
      {"measurement": "systolic blood pressure", "setting": "[1]; [3]", "result": "did not affect"},
      {"measurement": "improvement of relaxation (tendency)", "setting": "[1]; 36 nM free plasma", "result": "7.5±4.5", "unit": "%"},
      {"measurement": "effective free concentration range in rat plasma", "setting": "[1]; Figure S20", "result": "4 to 300", "unit": "nM"},
      {"measurement": "maximum inotropic effect without any other effects", "setting": "[1]; at 92±8 nM free plasma", "result": "34±5", "unit": "%"},
      {"measurement": "positive inotropic effect", "setting": "[1]; at free plasma concentration 4±0.3 nM (ORM-11372), 16±0.8 nM (dobutamine)", "result": "10±2", "unit": "%"},
      {"measurement": "decrease in heart rate", "setting": "[1]; free plasma concentrations higher than 240 nM", "result": "-7 to -12", "unit": "%"},
      {"measurement": "relaxation", "setting": "[1]; high concentration (≥240 nM)", "result": "impaired relaxation"},
      {"measurement": "heart rate", "setting": "[1]; up to 240 nM free plasma concentration", "result": "no effect"},
      {"measurement": "agonism / antagonism at 5‐HT2A receptors", "setting": "[2]", "result": "Neither agonism nor antagonism"}
    ]}
  ]
}
